Consider four compounds from patent US20210300924A1, “5-[6-[[3-(4,5,6,7-TETRAHYDROPYRAZOLO[4,3-C]PYRIDIN-1-YL)AZETIDIN-1-YL]METHYL]MORPHOLIN-4-YL]QUINOLINE-8-CARBONITRILE DERIVATIVES AND SIMILAR COMPOUNDS AS TLR7-9 ANTAGONISTS FOR TREATING SYSTEMIC LUPUS ERYTHEMATOSUS” (Hoffmann-La Roche Inc., priority 2018, published 2021).

Molecules are shown by their SMILES.

The experiment addresses T1, human TLR8 (Homo sapiens, UniProt Q9NR97).
T1 construct: host or cells: HEK293 (HEK-Blue hTLR8)
T1 sequence (Q9NR97 27-1041): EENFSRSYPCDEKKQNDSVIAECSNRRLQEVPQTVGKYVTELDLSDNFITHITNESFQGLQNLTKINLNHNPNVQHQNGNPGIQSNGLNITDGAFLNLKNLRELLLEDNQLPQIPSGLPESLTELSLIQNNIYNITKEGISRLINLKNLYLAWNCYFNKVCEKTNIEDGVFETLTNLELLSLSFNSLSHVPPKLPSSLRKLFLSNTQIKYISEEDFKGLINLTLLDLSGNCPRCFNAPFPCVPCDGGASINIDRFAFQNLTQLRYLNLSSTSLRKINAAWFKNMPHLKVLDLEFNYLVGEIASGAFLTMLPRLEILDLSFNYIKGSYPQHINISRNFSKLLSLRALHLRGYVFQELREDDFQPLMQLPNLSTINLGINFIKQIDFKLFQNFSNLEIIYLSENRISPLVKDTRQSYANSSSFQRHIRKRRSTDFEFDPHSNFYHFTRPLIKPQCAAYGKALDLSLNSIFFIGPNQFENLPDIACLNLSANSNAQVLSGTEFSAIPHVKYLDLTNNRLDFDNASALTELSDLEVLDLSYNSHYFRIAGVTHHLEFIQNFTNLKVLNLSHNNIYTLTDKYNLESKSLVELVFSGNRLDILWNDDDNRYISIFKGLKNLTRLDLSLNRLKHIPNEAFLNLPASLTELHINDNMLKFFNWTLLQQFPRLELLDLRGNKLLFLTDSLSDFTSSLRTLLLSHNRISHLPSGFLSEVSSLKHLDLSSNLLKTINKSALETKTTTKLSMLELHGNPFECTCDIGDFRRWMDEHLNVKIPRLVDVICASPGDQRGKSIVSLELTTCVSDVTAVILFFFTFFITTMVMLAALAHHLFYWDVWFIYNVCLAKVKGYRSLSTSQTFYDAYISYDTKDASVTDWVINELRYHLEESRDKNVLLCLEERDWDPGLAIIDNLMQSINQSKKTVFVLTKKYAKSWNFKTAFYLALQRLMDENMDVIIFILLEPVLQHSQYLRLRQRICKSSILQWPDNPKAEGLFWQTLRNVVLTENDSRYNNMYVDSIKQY
The experiment can be described thus: HEK293-Blue-hTLR-8 cells assay. The note with it: HEK293-Blue-hTLR8 cells, R848 stimulation, 20 hrs, SEAP reporter; read-out: HEK/hTLR8 IC50. In kind it is cell-based. The source says: A stable HEK293-Blue-hTLR-8 cell line was purchased from InvivoGen (Cat. #: hkb-htlr8, San Diego, Calif., USA). These cells were originally designed for studying the stimulation of human TLR8 by monitoring the activation of NF-κB. A SEAP (secreted embryonic alkaline phosphatase) reporter gene was placed under the control of the IFN-β minimal promoter fused to five NF-κB and AP-1-binding sites. The SEAP was induced by activating NF-κB and AP-1 via stimulating HEK-Blue hTLR8 cells with TLR8 ligands. Therefore the reporter expression was declined by TLR8 antagonist under the stimulation of a ligand, such as R848, for incubation of 20 hrs. The cell culture supernatant SEAP reporter activity was determined using QUANTI-Blue™ kit (Cat. #: rep-qb1, Invivogen, San Diego, Ca, USA) at a wavelength of 640 nm, a detection medium that turns purple or blue in the presence of alkaline phosphatase.
HEK293-Blue-hTLR8 cells were incubated at a density of 250,000-450,000 cells/mL in a volume of 170 μL in a 96-well plate in Dulbecco's Modified Eagle's medium (DMEM) containing 4.5 g/L glucose, 50 U/mL penicillin, […], […], 2 mM L-glutamine, 10% (v/v) heat-inactivated fetal bovine serum with addition of 20 μL test compound in a serial dilution in the presence of final DMSO at 1% and 10 μL of 60 uM R848 in above DMEM, perform incubation under 37° C. in a CO2 incubator for 20 hrs. Then 20 μL of the supernatant from each well was incubated with […] Quanti-blue substrate solution at 37° C. for 2 hrs and the absorbance was read at 620-655 nm using a spectrophotometer. The signaling pathway that TLR8 activation leads to downstream NF-κB activation has been widely accepted, and therefore similar reporter assay was modified for evaluating TLR8 antagonist.
On to `C[C@@H]1CN(c2ccc(C#N)c3ncccc23)C[C@H](CN2CCC(n3ncc4c3CCNC4)CC2)O1` [Example 35, 5-[(2R,6S)-2-methyl-6-[[4-(4,5,6,7-tetrahydropyrazolo[4,3-c]pyridin-1-yl)-1-piperidyl]methyl]morpholin-4-yl]quinoline-8-carbonitrile], for which the IC50 amounted to 25 nM.
As for `C[C@@H]1CN(c2ccc(C#N)c3ncccc23)C[C@H](CN2CCC(n3cc4c(n3)CCNC4)CC2)O1` [Example 36, 5-[(2R,6S)-2-methyl-6-[[4-(4,5,6,7-tetrahydropyrazolo[4,3-c]pyridin-2-yl)-1-piperidyl]methyl]morpholin-4-yl]quinoline-8-carbonitrile], the figure is 40 nM; as for `Cc1nn(C2CN(C[C@H]3CN(c4ccc(C#N)c5ncccc45)C[C@@H](C)O3)C2)c2c1CCNC2` [Example 42, 5-[(2R,6S)-2-methyl-6-[[3-(3-methyl-4,5,6,7-tetrahydropyrazolo[3,4-c]pyridin-1-yl)azetidin-1-yl]methyl]morpholin-4-yl]quinoline-8-carbonitrile], 18 nM; as for `Cc1c2c(nn1C1CN(C[C@H]3CN(c4ccc(C#N)c5ncccc45)C[C@@H](C)O3)C1)CNCC2` [Example 43, 5-[(2R,6S)-2-methyl-6-[[3-(3-methyl-4,5,6,7-tetrahydropyrazolo[3,4-c]pyridin-2-yl)azetidin-1-yl]methyl]morpholin-4-yl]quinoline-8-carbonitrile], 34 nM.
